Source: ChEMBL document CHEMBL1154346 (Bioorg Med Chem Lett, 2009)

Tests used:
[1] = tested on: Canis familiaris; test: Cardiotoxicity in conscious dog assessed as prolongation of QT interval; type: toxicity, organism-based, Canis lupus familiaris; settings: in vivo
[2] = molecular target: Voltage-gated inwardly rectifying potassium channel KCNH2 (Homo sapiens, UniProt Q12809); test: Displacement of [3H]dofetilide from human ERG expressed in HEK293 cells; type: cell-based
[3] = Toxicity in iv dosed mouse assessed as loss of righting reflex; type: organism-based; settings: in vivo, read-out: HD50 (the source's name)

Sequence of Voltage-gated inwardly rectifying potassium channel KCNH2 (Q12809 whole entry): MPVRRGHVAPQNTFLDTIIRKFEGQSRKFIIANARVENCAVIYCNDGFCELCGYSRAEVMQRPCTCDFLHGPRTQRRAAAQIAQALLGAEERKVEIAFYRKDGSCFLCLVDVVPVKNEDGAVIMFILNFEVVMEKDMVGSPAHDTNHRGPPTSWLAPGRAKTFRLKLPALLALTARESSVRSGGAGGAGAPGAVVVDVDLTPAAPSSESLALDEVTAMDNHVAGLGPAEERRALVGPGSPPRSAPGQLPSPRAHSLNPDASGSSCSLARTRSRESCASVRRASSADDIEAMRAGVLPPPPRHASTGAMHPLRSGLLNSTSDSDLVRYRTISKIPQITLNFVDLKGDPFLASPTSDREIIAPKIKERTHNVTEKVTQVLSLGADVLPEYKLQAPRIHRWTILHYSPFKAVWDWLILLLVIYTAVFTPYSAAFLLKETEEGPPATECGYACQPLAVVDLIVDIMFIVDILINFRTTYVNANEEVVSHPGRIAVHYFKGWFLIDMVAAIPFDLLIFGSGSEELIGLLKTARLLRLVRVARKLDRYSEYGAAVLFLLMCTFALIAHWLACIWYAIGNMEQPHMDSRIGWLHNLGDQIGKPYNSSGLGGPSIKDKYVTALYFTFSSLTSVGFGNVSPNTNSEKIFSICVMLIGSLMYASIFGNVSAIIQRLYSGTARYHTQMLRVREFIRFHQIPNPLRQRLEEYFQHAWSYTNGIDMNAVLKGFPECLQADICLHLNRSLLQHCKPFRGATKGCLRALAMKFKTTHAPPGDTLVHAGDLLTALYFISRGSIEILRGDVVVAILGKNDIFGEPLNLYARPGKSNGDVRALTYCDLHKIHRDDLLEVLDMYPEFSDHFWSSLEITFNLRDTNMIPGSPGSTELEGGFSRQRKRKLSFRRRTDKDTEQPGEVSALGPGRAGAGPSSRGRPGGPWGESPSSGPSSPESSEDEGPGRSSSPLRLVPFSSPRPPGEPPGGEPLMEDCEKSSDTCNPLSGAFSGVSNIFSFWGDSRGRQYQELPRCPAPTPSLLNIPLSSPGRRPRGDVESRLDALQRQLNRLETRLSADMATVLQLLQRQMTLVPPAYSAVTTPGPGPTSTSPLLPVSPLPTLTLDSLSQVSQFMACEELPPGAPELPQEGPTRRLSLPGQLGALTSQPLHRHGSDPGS

## CNC(=O)Cn1c(=O)n(C2CCN(CCC(Oc3cc(OC)ccc3C)C(C)C)CC2)c2ccccc21 (racemic)
[1]
  Activity: 10%
[2]
  Ki: 0.056 µM
[3]
  TD50: 4.7 µmol/kg
